Measured values from patent US20260014219A1, “COMPOSITION FOR INHIBITING REDUCTION OF TESTOSTERONE AND/OR DIHYDROTESTOSTERONE” (priority 2019, published 2026).

Key:
testicular cells = experiment: Test Example 2: testosterone/dihydrotestosterone production in primary testicular cells; assay type: cell-based, rat; conditions: 0.5 mM, 1 h pretreatment, then LH or dibutyryl cAMP, 90 min
Protocol: Dispersed testicular cells were prepared from the testis in mature rats. The testicular cells isolated were cultured for 18 hours in DMEM/Ham's F-12 medium (manufactured by FUJIFILM Wako Pure Chemical Corporation) for culture of testicular stromal cells, Leydig cell. Cells were pretreated with the hot water extract of Cordyceps militaris derived from Samia cynthia ricini (diluted to 1:500), or cordycepin known as one of the physiological activity substances of a vegetative wasp (0.5 mM) for 1 hour and then stimulated with a luteinizing hormone (LH: 10 and 100 ng/mL) or dibutyryl cAMP (0.1 and 0.5 mM). Ninety minutes after the stimulation, the media was collected and the content of testosterone was quantified. In order to confirm the reproducibility, the results of the reexamination performed with the same test content are shown in FIG. 13. In the reexamnination, three independent experiments were performed, and in addition to testosterone, dihydrotestosterone was also quantified.

castrated rat = experiment: Test Example 1-1: male menopausal model rat (castrated, testosterone propionate-supplemented); assay type: in vivo
Protocol: As the human menopause model, rats were castrated (orchiectomy). An eight-week-old male rat was subjected to orchiectomy under isoflurane anesthesia, and the castrated rat was orally administered the hot water extract of Cordyceps militaris derived from Samia cynthia ricini (RK: 20 mg/0.2 mL distilled water/rat: average body weight at the start of administration: 317 g) together with testosterone propionate (TP: 1 mg/kg, every other day administration) continuously for 12 days. Animals were sacrificed the day after the final treatment, and then the serum, testes, prostate, and seminal vesicle glands were isolated. Some animals to which 0.2 mL distilled water was administered was used as control group.
After the blood collection, the concentrations of testosterone and dihydrotestosterone in the serum were evaluated by the following measurement kit.
The results of the blood testosterone values measured by an EIA kit (manufactured by Cayman) and the results of blood dihydrotestosterone values measured by an ELISA kit (manufactured by Abnova) are shown in FIGS. 1 and 2, respectively.
After the autopsy, changes in the weight of the prostate and the seminal vesicle were evaluated. The change in the weight of the prostate is shown in FIG. 5, and change in the weight of the seminal vesicle is shown in FIG. 6.

[1] = system: prostatic hypertrophy model rat; experiment: Test Example 1-2: prostatic hypertrophy model rat (long-term excessive TP); assay type: in vivo, Wistar rat; conditions: TP 3 mg/kg, 1 month
Protocol: In a rat model of menopause Test Example 1-1, since the increase in the prostatic weight by testosterone propionate (TP) was inhibited by the hot water extract of Cordyceps militaris derived from Samia cynthia ricini (RK), it was assumed that RK has inhibitory effects on prostatic hypertrophy. The effect of long-term administration of RK was, therefore, examined using a rat model of prostatic hypertrophy in which an excessive amount of TP is administered to mature rats for a long period of time.
An eight-week-old male Wistar rat was orally administered RK (10 mg/0.2 mL distilled water/rat or 20 mg/0.2 mL distilled water/rat: average body weight at the start of administration: 268 g) together with 3 mg/kg of TP continuously for 1 month. Animals were sacrificed the day after the final treatment, and then the serum, testes, prostate, and seminal vesicle glands were isolated. Some animals to which 0.2 mL distilled water was administered was used as control group.
After the blood collection, the serum levels of testosterone and dihydrotestosterone value were evaluated by the following measurement kit.
The results of the blood testosterone values measured by EIA kit (manufactured by Cayman) and the results of dihydrotestosterone values measured by Elisa kit (manufactured by Abnova) are shown in FIGS. 8 and 9, respectively.
After the necropsy, changes in prostate weight and body weight were evaluated.

Nc1ncnc2c1ncn2[C@@H]1O[C@H](CO)C[C@H]1O [Cordycepin, cordycepin]
stimulatory action on testosterone/dihydrotestosterone levels (testicular cells): No stimulatory action

CCC(=O)O[C@H]1CC[C@H]2[C@@H]3CCC4=CC(=O)CC[C@]4(C)[C@H]3CC[C@]12C [testosterone propionate]
body weight (castrated rat; TP administered to castrated animals, FIG. 7): tended to increase | weight of the prostate (castrated rat; TP group (1 mg/kg every other day) vs castrated, FIG. 5): increased | weight of the seminal vesicle (castrated rat; TP group (1 mg/kg every other day) vs castrated, FIG. 6): increased | serum levels of testosterone ([1]; FIG. 8): increase | serum levels of dihydrotestosterone ([1]; FIG. 9): increase | prostatic weight ([1]; FIG. 10): increased
